The record followed here is patent publication US20020193377A1, “Quinazolines as MMP-13 inhibitors” (priority 2001, published 2002).

As a reminder, the IC50 is the concentration that inhibits the measured activity by half. Read a high IC50 as weaker potency.

In this experiment the target is T1, human collagenase-3 catalytic domain enzyme (MMP13) (Homo sapiens, UniProt P45452).
T1 construct: human collagenase-3 catalytic domain enzyme
Put plainly: MMP13CD Thiopeptolide Assay. The class given is biochemical. On the procedure: MMP13CD Thiopeptolide Assay: Proteolysis of the thiopeptolide substrate Ac-Pro-Leu-Gly-thioester-Leu-Leu-Gly-OEt is used as the primary screen to determine IC50 values for MMP13 inhibitors. A 100 μl reaction contains 50 mM HEPES, 10 mM CaCl2, pH 7.0 (RT), 1 mM 5,5′-dithiobis(2-nitrobenzoic acid) (DTNB), 100 μM substrate, inhibitor in 2.0% DMSO and 2.5 nM human collagenase-3 catalytic domain enzyme. Inhibitors are screened from 100 μM to 0.5 nM. […] Percentage of control velocity in inhibited treatments is plotted against inhibitor concentration to calculate IC50 values.
Turning to `O=C(NCc1cccnc1)c1ccc2[nH]c(=O)n(Cc3ccccc3)c(=O)c2c1` [Example 5, 3-Benzyl-2,4-dioxo-1,2,3,-tetrahydroquinazoline-6-carboxylic acid (3-pyridylmethyl)amide], 0.193 µM corresponded to half-maximal inhibition (IC50). In other words, the sub-micromolar range.

On to `COc1ccc(CNC(=O)c2ccc3[nH]c(=O)n(Cc4ccccc4)c(=O)c3c2)cc1` [Example 6, 3-Benzyl-2,4-dioxo-1,2,3,4-tetrahydroquinazoline-6-carboxylic acid 4-methoxybenzylamide], for which the IC50 was found to be 0.183 µM.

For the molecule `O=C(NCc1ccc(Cl)cc1)c1ccc2[nH]c(=O)n(Cc3ccccc3)c(=O)c2c1` [Example 7, 3-Benzyl-2,4-dioxo-1,2,3,4-tetrahydroquinzaoline-6carboxylic acid 4-chlorobenzylamide], the IC50 was determined as 0.021 µM.

In the case of `Cc1ccc(CNC(=O)c2ccc3[nH]c(=O)n(Cc4ccccc4)c(=O)c3c2)cc1` [Example 8, 3-Benzyl-2,4-dioxo-1,2,3,4-tetrahydroquinazoline-6-carboxylic acid 4-methylbenzylamide], it took 1.87 µM to reach half-maximal inhibition (IC50). This IC50 is about 89-fold higher than that of the molecule before.

The molecule `Cn1c(=O)n(Cc2ccccc2)c(=O)c2cc(C(=O)NCc3ccc4c(c3)OCO4)ccc21` [Example 9, 3-Benzyl-1-methyl-2,4-dioxo-1,2,3,4-tetrahydroquinazoline-6-carboxylic acid (benzo[1,3]dioxol-5-ylmethyl)amide] had an IC50 of 0.366 µM.

Molecule `Cn1c(=O)n(Cc2ccccc2)c(=O)c2cc(C(=O)NCc3ccccc3)ccc21` [Example 10, 3-Benzyl-1-methyl-2,4-dioxo-1,2,3,4-tetrahydroquinazoline-6carboxylic acid benzylamide] yielded an IC50 of 0.049 µM.

`COC(=O)c1ccc(CNC(=O)c2ccc3c(c2)c(=O)n(Cc2ccccc2)c(=O)n3C)cc1` [Example 11, Methyl 4-({[1-(3-benzyl-1-methyl-2,4-dioxo-1,2,3,4-tetrahydroquinazolin-6-yl)methanoyl]amino}methyl)benzoate]: inhibition was half-maximal at 0.167 µM (IC50). Against the preceding molecule, the IC50 is about 3.4-fold higher.

`COc1cc(CNC(=O)c2ccc3c(c2)c(=O)n(Cc2ccccc2)c(=O)n3C)ccc1O` [Example 12, 3-Benzy-1-methyl-2,4-dioxo-1,3,3,4-tetrahydroquinazoline-6-carboxylic acid 4-hydroxy-3-methoxybenzylamide] returned a 50% inhibitory concentration (IC50) of 1.32 µM. Against the preceding molecule, the IC50 is about 7.9-fold higher.

Turning to `COc1ccc(CNC(=O)c2ccc3c(c2)c(=O)n(Cc2ccccc2)c(=O)n3C)cc1` [Example 13, 3-Benzyl-1-methyl-2,4-dioxo-1,2,3,4-tetrahydroquinazoline-6-carboxylic acid 4-methoxybenzylamide], the IC50 was found to be 0.005 µM.

The molecule `Cn1c(=O)n(Cc2ccccc2)c(=O)c2cc(C(=O)NCc3ccncc3)ccc21` [Example 14, 3-Benzyl-1-methyl-2,4-dioxo-1,2,3,4-tetrahydroquinazoline-6-carboxylic acid (4-pyridylmethyl)amide] gave an IC50 of 0.057 µM. Against the preceding molecule, the IC50 is about 11-fold higher.

`Cn1c(=O)n(CCc2ccccc2)c(=O)c2cc(C(=O)NCc3ccc4c(c3)OCO4)ccc21` [Example 15, 1-Methyl-2,4-dioxo-3-phenethyl-1,2,3,4-tetrahydroquinazoline-6-carboxylic acid (benzo[1,3]dioxol-5-ylmethyl)amide] yielded a half-inhibitory concentration (IC50) of 2.25 µM.

In turn, `COc1ccc(Cn2c(=O)[nH]c3ccc(C(=O)NCc4ccc5c(c4)OCO5)cc3c2=O)cc1` [Example 16, 3-(4-Methoxybenzyl)-2,4-dioxo-1,2,3,4-tetrahydroquinazoline-6-carboxylic acid (benzo[1,3]dioxol-5-ylmethyl)amide] registered an IC50 of 0.042 µM.

`COc1ccc(Cn2c(=O)c3cc(C(=O)NCc4ccc5c(c4)OCO5)ccc3n(C)c2=O)cc1` [Example 17, 3-(4-Methoxybenzyl)-1-methyl-2,4-dixo-1 3,4-tetrahydroquinazoline-6-carboxylic acid (benzo[1,3]dioxo-5-ylmethyl)amide]: half-maximal inhibition (IC50) was put at 0.012 µM.

`COc1ccc(CNC(=O)c2ccc3c(c2)c(=O)n(Cc2ccc(OC)cc2)c(=O)n3C)cc1` [Example 18, 3-(4-Methoxybenzyl)-1-methyl-2,4-dioxo-1,2,3,4-tetrahydroquinazoline-6-carboxylic acid 4-methoxybenzylamide] showed an IC50 of 0.051 µM. This IC50 lies about 4.2-fold higher than the previous one.

The molecule `O=C(NCc1ccc2c(c1)OCO2)c1ccc2[nH]c(=O)n(Cc3ccncc3)c(=O)c2c1` [Example 20, 2,4-Dioxo-3-(pyrid-4-ylmethyl)-1,2,3,4-tetrahydroquinazoline-6-carboxylic acid (benzo[1,3]dioxol-5ylmethyl)amide] registered an IC50 of 0.015 µM.

Consider `O=C(NCc1ccccc1)c1ccc2[nH]c(=O)n(Cc3cccs3)c(=O)c2c1` [Example 21, 2,4-Dioxo3-(thien-2-ylmethyl)-1,2,3,4-tetrahydroquinazoline-6-carboxylic acid benzylamide], for which the IC50 was 0.009 µM.

As for `Cn1c(=O)n(Cc2cccs2)c(=O)c2cc(C(=O)NCc3ccc4c(c3)OCO4)ccc21` [Example 24, 1-Methyl-2,4-dioxo-3-(thien-2-ylmethyl)-1,2,4,4-tetrahydroquinazoline-6-carboxylic acid (benzo[1,3]dioxol-5-ylmethyl)amide], half-maximal inhibition (IC50) required 0.051 µM.

`O=C(NCc1ccc2c(c1)OCO2)c1ccc2[nH]c(=O)n(Cc3ccc(Cl)cc3)c(=O)c2c1` [Example 25, 3-(4-Chlorobenzyl)-2,4-dioxo-1,2,3,4-tetrahydroquinazoline-6-carboxylic acid (benzo[1,3]dioxol-5-ylmethyl)amide] showed an IC50 of 0.3 µM.

As to `Cn1c(=O)n(Cc2ccc(Cl)cc2)c(=O)c2cc(C(=O)NCc3ccc4c(c3)OCO4)ccc21` [Example 26, 3-(4Chlorobenzyl)-1-methyl-2,4-dioxo-1,2,3,4-tetrahydroquinazoline-6-carboxylic acid (benzo[1,3]dioxol-5-ylmethyl)amide], the midpoint of inhibition, the IC50, lay at 0.096 µM.

Take `Cn1c(=O)c2cc(C(=O)NCc3ccc4c(c3)OCO4)ccc2n(C)c1=O` [Example 27, 1,3-Dimethyl-2,4-dioxo-1,2,3,4-tetrahydroquinazoline-6-carboxylic acid (benzo[1,3]dioxol-5-ylmethyl)amide]: 0.029 µM corresponded to half-maximal inhibition (IC50).

In turn, `Cn1c(=O)n(Cc2ccc3c(c2)OCO3)c(=O)c2cc(C(=O)NCc3ccc4c(c3)OCO4)ccc21` [Example 29, 3-(Benzo[1,3]dioxol-5-ylmethyl)-1-methyl-2,4-dioxo-1,2,3,4-tetrahydroquinazoline-6carboxylic acid (benzo[1,3]dioxol-5-ylmethyl)amide] displayed an IC50 of 0.028 µM. This IC50 and that of the molecule before are within 1.5-fold of each other.

Consider `CCn1c(=O)n(Cc2ccccc2)c(=O)c2cc(C(=O)NCc3ccc4c(c3)OCO4)ccc21` [Example 30, 3-Benzyl-1-ethyl-2,4-dioxo-1,2,3,4-tetraquinazoline-6-carboxylic acid (benzo[1,3]dioxol-5-ylmethyl)amide], for which the IC50 stood at 0.009 µM.

On to `O=C(NCc1ccc2c(c1)OCO2)c1ccc2c(c1)c(=O)n(Cc1ccccc1)c(=O)n2CC1CC1` [Example 31, 3-Benzyl-1-cyclopropylmethyl-2,4-dioxo-1,2,3,4-tetrahydroquinazoline-6-carboxylic acid (benzo[1,3]dioxol-5-ylmethy)amide], for which the IC50 was found to be 1.7 µM.

In turn, `CC(C)Cn1c(=O)n(Cc2ccccc2)c(=O)c2cc(C(=O)NCc3ccc4c(c3)OCO4)ccc21` [Example 32, 3-Benzyl-1-isobutyl-2,4-dioxo-1,2,3,4-tetrahydroquinazoline-6-carboxylic acid (benzo[1,3]dioxol-5-ylmethyl)amide] registered an IC50 of 0.017 µM.
